Assay results: US20100041760A1, “MONOARYL AMINOTETRALINES” (priority 2008, published 2010)
pIC50: −log10 of the molar value.

molecular target: T1, human CRTH2 (Homo sapiens, UniProt Q9Y5Y4); assay: Calcium Flux Assay Using Fluorometric Imaging Plate Reader (FLIPR); type: cell-based; set-up: expressed in transfected cells; host or cells: CHO-K1 previously transfected with G-alpha 16; conditions: CHO-K1 cells with G-alpha 16 and human CRTH2; inhibition of ligand (DK-PGD2) response; read-out: IC50 value in FLIPR calcium flux assay
T1 sequence (Q9Y5Y4 1-395): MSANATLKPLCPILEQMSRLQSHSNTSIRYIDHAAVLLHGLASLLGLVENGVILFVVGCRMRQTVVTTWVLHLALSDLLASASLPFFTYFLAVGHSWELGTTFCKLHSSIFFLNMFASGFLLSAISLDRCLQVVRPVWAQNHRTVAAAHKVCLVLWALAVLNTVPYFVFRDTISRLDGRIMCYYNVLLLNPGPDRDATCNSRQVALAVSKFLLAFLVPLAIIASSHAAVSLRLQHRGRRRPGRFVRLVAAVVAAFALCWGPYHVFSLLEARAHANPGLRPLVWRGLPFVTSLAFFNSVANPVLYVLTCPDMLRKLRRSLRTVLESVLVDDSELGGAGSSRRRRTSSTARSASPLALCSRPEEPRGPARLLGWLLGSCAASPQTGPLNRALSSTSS
Protocol: CHO-K1 cells previously transfected with G-alpha 16 were subsequently transfected with the human CRTH2 receptor and the neomycin resistance gene. Following selection in 800 μg/mL G418 (geneticin), individual clones were assayed for their receptor expression based on staining with an anti human CRTH2 IgG, followed by assaying for their response to 13,14-dihydro-15-keto Prostaglandin D2 (DK-PDG2) (ligand) in the Ca^2+ Flux assay. Positive clones were then cloned by limiting dilution cloning. The transfected cells were cultured in Ham's F-12 medium supplemented with 10% fetal bovine serum, 2 mM glutamine, 100 U/mL penicillin/100 μg/mL streptomycin, 200 μg/mL hygromycin B, and 800 μg/mL G418 (geneticin). Cells were harvested with trypsin-EDTA (trypsin-ethylenediaminetetraacetic acid) and counted using ViaCount® reagent (from Guava Technologies, Inc. which contains two DNA-binding dyes that enable the reagent user to distinguish between viable and non-viable cells). The cell suspension volume was adjusted to 2.5×10^5 cells /mL with complete growth media. Aliquots of 50 μL were dispensed into BD Falcon™ 384 well black/clear microplates (from BD Biosciences, a division of Becton, Dickinson and Company) and the microplates were placed in a 37° C. CO2 incubator overnight. The following day, the microplates were used in the assay.
Loading Buffer containing dye (from the FLIPR® Calcium 3 Assay Kit from Molecular Devices, a division of MDS Analytical Technologies and MDS Inc.) was prepared by dissolving the contents of one bottle into 200 mL Hank's Balanced Salt Solution containing 20 mM HEPES (4-(2-hydroxyethyl)-1-piperazineethanesulfonic acid) and 2.5 mM probenecid. Growth media was removed from the cell plates and 25 μL of Hank's Balanced Salt Solution (HBSS) containing 20 mM HEPES, 0.05% BSA and 2.5 mM probenecid was added to each well followed by 25 μL of diluted dye using a Multidrop dispenser. The plates were then incubated for 1 hour at 37° C.
During the incubation, test compound plates were prepared by adding 90 μL of HBSS/20 mM HEPES/0.005% BSA buffer to the 2 μL of serial diluted compounds. To prepare serial diluted compounds, 20 mM stocks of compounds were dissolved in 100% DMSO. The compound dilution plate was set up as follows: well #1 received 5 μL of compound plus 10 μL of DMSO. Wells 2-10 received 10 μL of DMSO. 5 μL was mixed and transferred from well #1 into well #2. 1:3 serial dilutions were continued out 10 steps. 2 μL of diluted compound was transferred into duplicate wells of a 384 well “assay plate” and then 90 μL of buffer was added.
After incubation, both the cell and “assay plate” plates were brought to the fluorometric imaging plate reader (FLIPR®) and 20 μL of the diluted compounds were transferred to the cell plates by the FLIPR®. Plates were then incubated for 1 hour at room temperature. After the 1 hour incubation, plates were returned to the FLIPR® and 20 μL of 4.5× concentrated ligand was added to the cell plates. During the assay, fluorescence readings were taken simultaneously from all 384 wells of the cell plate every 1.5 seconds. Five readings were taken to establish a stable baseline, then 20 μL of sample was rapidly (30 μL/sec) and simultaneously added to each well of the cell plate. The fluorescence was continuously monitored before, during and after sample addition for a total elapsed time of 100 seconds. Responses (increase in peak fluorescence) in each well following agonist addition were determined. The initial fluorescence reading from each well, prior to ligand stimulation, was used as a zero baseline value for the data from that well. The responses were expressed as % inhibition of the buffer control. […]

SMILES | pIC50
CCN(CC)c1cc(C(F)(F)F)cc(S(=O)(=O)N(C)[C@@H]2CCCc3c(OCC(=O)O)cccc32)c1 [Example 4-2, {(R)-5-[(3-diethylamino-5-trifluoromethyl-benzenesulfonyl)-methyl-amino]-5,6,7,8-tetrahydro-naphthalen-1-yloxy}-acetic acid] | 5.70
CN([C@@H]1CCCc2c(OCC(=O)O)cccc21)S(=O)(=O)c1cc(OC2CCCC2)cc(C(F)(F)F)c1 [Example 9-3, {(R)-5-[(3-cyclopentyloxy-5-trifluoromethyl-benzenesulfonyl)-methyl-amino]-5,6,7,8-tetrahydro-naphthalen-1-yloxy}-acetic acid] | 6.34

More lines, now with the values ahead:

pIC50 | SMILES
5.75 | CN([C@@H]1CCCc2c(OCC(=O)O)cccc21)S(=O)(=O)c1cc(F)cc(C(F)(F)F)c1 [Example 1-1, {(R)-5-[(3-fluoro-5-trifluoromethyl-benzenesulfonyl)-methyl-amino]-5,6,7,8-tetrahydro-naphthalen-1-yloxy}-acetic acid]
7.03 | O=C(O)COc1cccc2c1CCC[C@H]2NS(=O)(=O)c1cc(F)cc(F)c1 [Example 10-5, [(R)-5-(3,5-difluoro-benzenesulfonylamino)-5,6,7,8-tetrahydro-naphthalen-1-yloxy]-acetic acid]
6.50 | O=C(O)COc1cccc2c1CCC[C@H]2NS(=O)(=O)c1cc(F)cc(C(F)(F)F)c1 [Example 10-12, [(R)-5-(3-fluoro-5-trifluoromethyl-benzenesulfonylamino)-5,6,7,8-tetrahydro-naphthalen-1-yloxy]-acetic acid]

same assay, conditions: CHO-K1 cells with G-alpha 16 and human CRTH2; unit inferred; read-out: IC50 value in FLIPR calcium flux assay (unit inferred)

pIC50 | SMILES
~5.52 | O=C(O)COc1cccc2c1CCC[C@H]2NS(=O)(=O)c1cc(Cl)cc(Cl)c1 [Example 10-1, [(R)-5-(3,5-dichloro-benzenesulfonylamino)-5,6,7,8-tetrahydro-naphthalen-1-yloxy]-acetic acid]
